Data as given in patent US8614327B2 (Vertex Pharmaceuticals Incorporated, priority 2004, dated 2013).

Target: T1, ΔF508-CFTR (Homo sapiens, UniProt P13569, DEL508-508)
T1 construct: expressed in transfected cells
Assay: Membrane potential optical (FRET/VIPR) assay, identification of potentiator compounds
Type: cell-based
Settings: Table 3, assay not given; for % Activity: relative efficacy
Text: I) Membrane Potential Optical Methods for Assaying ΔF508-CFTR Modulation Properties of Compounds The optical membrane potential assay utilized voltage-sensitive FRET sensors described by Gonzalez and Tsien (See, Gonzalez, J. E. and R. Y. Tsien (1995) “Voltage sensing by fluorescence resonance energy transfer in single cells” Biophys J 69(4): 1272-80, and Gonzalez, J. E. and R. Y. Tsien (1997) “Improved indicators of cell membrane potential that use fluorescence resonance energy transfer” Chem Biol 4(4): 269-77) in combination with instrumentation for measuring fluorescence changes such as the Voltage/Ion Probe Reader (VIPR) (See, […]. Oades, et al. (1999) “Cell-based assays and instrumentation for screening ion-channel targets” Drug Discov Today 4(9): 431-439). These voltage sensitive assays are based on the change in fluorescence resonant energy transfer (FRET) between the membrane-soluble, voltage-sensitive dye, DiSBAC2(3), and a fluorescent phospholipid, CC2-DMPE, which is attached to the outer leaflet of the plasma membrane and acts as a FRET donor. Changes in membrane potential (Vm) cause the negatively charged DiSBAC2(3) to redistribute across the plasma membrane and the amount of energy transfer from CC2-DMPE changes accordingly. The changes in fluorescence emission were monitored using VIPR which is an integrated liquid handler and fluorescent detector designed to conduct cell-based screens in 96- or 384-well microtiter plates. To identify potentiators of ΔF508-CFTR, a double-addition HTS assay format was developed. During the first addition, a Cl^--free medium with or without test compound was added to each well. […] (in mM) NaCl 160, KCl 4.5, CaCl2 2, MgCl2 1, HEPES 10, pH 7.4 with NaOH. • Chloride-free bath solution: Chloride salts in Bath Solution #1 are substituted with gluconate salts. • CC2-DMPE: Prepared as a 10 mM stock solution in DMSO and stored at -20° C. • DiSBAC2(3): Prepared as a 10 mM stock in DMSO and stored at -20° C. NIH3T3 mouse fibroblasts stably expressing ΔF508-CFTR are used for optical measurements of membrane potential. […] For all optical assays, the cells were seeded at 30,000/well in 384-well matrigel-coated plates and cultured for 2 hrs at 37° C. before culturing at 27° C. for 24 hrs. for the potentiator assay.

T1 sequence (P13569 with tags, fused parts or gaps DEL508-508): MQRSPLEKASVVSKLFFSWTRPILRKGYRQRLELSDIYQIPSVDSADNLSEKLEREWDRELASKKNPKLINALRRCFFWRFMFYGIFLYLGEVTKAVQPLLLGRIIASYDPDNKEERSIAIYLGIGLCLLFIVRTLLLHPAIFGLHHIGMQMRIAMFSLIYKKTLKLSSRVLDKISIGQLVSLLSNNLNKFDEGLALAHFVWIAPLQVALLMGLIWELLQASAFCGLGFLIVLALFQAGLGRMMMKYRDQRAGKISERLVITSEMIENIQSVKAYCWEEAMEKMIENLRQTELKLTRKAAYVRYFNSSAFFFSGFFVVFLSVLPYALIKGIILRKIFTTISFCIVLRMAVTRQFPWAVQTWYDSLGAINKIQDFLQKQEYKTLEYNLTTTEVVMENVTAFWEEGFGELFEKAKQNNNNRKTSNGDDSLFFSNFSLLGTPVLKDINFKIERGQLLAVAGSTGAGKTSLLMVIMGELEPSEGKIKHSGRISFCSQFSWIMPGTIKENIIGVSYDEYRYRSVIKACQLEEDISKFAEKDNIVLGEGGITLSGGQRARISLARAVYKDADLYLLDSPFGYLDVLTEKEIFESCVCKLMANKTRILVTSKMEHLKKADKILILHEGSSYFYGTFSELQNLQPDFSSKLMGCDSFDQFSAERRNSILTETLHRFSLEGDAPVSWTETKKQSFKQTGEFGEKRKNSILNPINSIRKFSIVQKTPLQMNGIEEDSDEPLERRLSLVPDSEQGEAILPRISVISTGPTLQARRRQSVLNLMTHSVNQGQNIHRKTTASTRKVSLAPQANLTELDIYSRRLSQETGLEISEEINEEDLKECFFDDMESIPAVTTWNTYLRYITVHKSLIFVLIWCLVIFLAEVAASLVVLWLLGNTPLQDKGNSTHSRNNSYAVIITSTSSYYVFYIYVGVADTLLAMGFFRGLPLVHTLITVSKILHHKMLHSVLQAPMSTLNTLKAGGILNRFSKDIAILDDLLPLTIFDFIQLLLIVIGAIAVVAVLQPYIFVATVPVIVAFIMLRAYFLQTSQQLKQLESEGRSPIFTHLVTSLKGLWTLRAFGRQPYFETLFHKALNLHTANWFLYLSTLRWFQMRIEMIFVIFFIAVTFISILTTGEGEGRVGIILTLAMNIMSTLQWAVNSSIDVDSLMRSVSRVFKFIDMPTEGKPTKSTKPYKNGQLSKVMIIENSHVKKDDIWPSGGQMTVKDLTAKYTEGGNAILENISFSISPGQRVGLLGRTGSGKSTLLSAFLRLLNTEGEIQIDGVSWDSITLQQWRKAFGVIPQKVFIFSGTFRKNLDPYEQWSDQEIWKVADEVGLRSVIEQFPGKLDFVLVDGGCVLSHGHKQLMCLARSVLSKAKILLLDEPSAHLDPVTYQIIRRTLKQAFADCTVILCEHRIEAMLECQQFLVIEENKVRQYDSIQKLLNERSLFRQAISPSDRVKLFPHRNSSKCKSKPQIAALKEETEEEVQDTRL

## O=C(Nc1ccc2c(c1)OC(F)(F)O2)c1c[nH]c2ccccc2c1=O [Compound 66, N-(2,2-difluorobenzo[1,3]dioxol-5-yl)-4-oxo-1H-quinoline-3-carboxamide]
  EC50: 10 to 25 µM
  % Activity: ++ (between 25% to 100%)

## CCc1ccc2ncc(C(=O)Nc3ccc4cc[nH]c4c3)c(O)c2c1 [Compound 67, 6-ethyl-4-hydroxy-N-(1H-indol-6-yl)quinoline-3-carboxamide]
  EC50: < 10 µM
  % Activity: ++ (between 25% to 100%)

## COC(=O)c1cccc(-c2ccccc2NC(=O)c2c[nH]c3ccccc3c2=O)c1 [Compound 68, 3-[2-[(4-oxo-1H-quinolin-3-yl)carbonylamino]phenyl]benzoic acid methyl ester]
  % Activity: ++ (between 25% to 100%)

## CC(C)c1ccc(NC(=O)c2c[nH]c3ccccc3c2=O)cc1N [Compound 69, N-(3-amino-4-isopropyl-phenyl)-4-oxo-1H-quinoline-3-carboxamide]
  EC50: < 10 µM
  % Activity: ++ (between 25% to 100%)

## O=C(Nc1ccccc1-c1ccncc1)c1c[nH]c2ccccc2c1=O [Compound 70, 4-oxo-N-[2-(4-pyridyl)phenyl]-1H-quinoline-3-carboxamide]
  % Activity: ++ (between 25% to 100%)

## CC(C)OC(=O)c1cccc(-c2ccccc2NC(=O)c2c[nH]c3ccccc3c2=O)c1 [Compound 71, 3-[2-[(4-oxo-1H-quinolin-3-yl)carbonylamino]phenyl]benzoic acid isopropyl ester]
  EC50: < 10 µM
  % Activity: ++ (between 25% to 100%)

## CCc1ccccc1NC(=O)c1c[nH]c2ccccc2c1=O [Compound 72, N-(2-ethylphenyl)-4-oxo-1H-quinoline-3-carboxamide]
  EC50: < 10 µM
  % Activity: ++ (between 25% to 100%)

## O=C(Nc1ccc2nc(-c3ccccc3)[nH]c2c1)c1c[nH]c2ccccc2c1=O [Compound 73, 4-oxo-N-(2-phenyl-3H-benzoimidazol-5-yl)-1H-quinoline-3-carboxamide]
  EC50: 25 to 60 µM
  % Activity: + (<25%)

## O=C(Nc1ccc(C(F)(F)F)cn1)c1c[nH]c2ccccc2c1=O [Compound 74, 4-oxo-N-[5-(trifluoromethyl)-2-pyridyl]-1H-quinoline-3-carboxamide]
  EC50: 25 to 60 µM
  % Activity: + (<25%)

## O=C(Nc1cnc2ccccc2c1)c1c[nH]c2ccccc2c1=O [Compound 75, 4-oxo-N-(3-quinolyl)-1H-quinoline-3-carboxamide]
  EC50: 25 to 60 µM
  % Activity: + (<25%)

## O=C(Nc1ccccc1-c1ccc(F)c(F)c1)c1c[nH]c2ccccc2c1=O [Compound 76, N-[2-(3,4-difluorophenyl)phenyl]-4-oxo-1H-quinoline-3-carboxamide]
  EC50: < 10 µM
  % Activity: ++ (between 25% to 100%)

## O=C(Nc1cc2[nH]ccc2cc1F)c1c[nH]c2ccccc2c1=O [Compound 77, N-(5-fluoro-1H-indol-6-yl)-4-oxo-1H-quinoline-3-carboxamide]
  EC50: < 10 µM
  % Activity: ++ (between 25% to 100%)

## NS(=O)(=O)c1ccccc1NC(=O)c1c[nH]c2ccccc2c1=O [Compound 78, 4-oxo-N-(2-sulfamoylphenyl)-1H-quinoline-3-carboxamide]
  EC50: 25 to 60 µM
  % Activity: + (<25%)

## Cc1cc(-c2ccccc2NC(=O)c2c[nH]c3ccccc3c2=O)ccc1F [Compound 79, N-[2-(4-fluoro-3-methyl-phenyl)phenyl]-4-oxo-1H-quinoline-3-carboxamide]
  % Activity: ++ (between 25% to 100%)

## COc1ccccc1NC(=O)c1c[nH]c2ccccc2c1=O [Compound 80, N-(2-methoxyphenyl)-4-oxo-1H-quinoline-3-carboxamide]
  EC50: < 10 µM
  % Activity: ++ (between 25% to 100%)

## CCC(=O)Nc1cccc(NC(=O)c2c[nH]c3ccccc3c2=O)c1 [Compound 81, 4-oxo-N-(3-propionylaminophenyl)-1H-quinoline-3-carboxamide]
  EC50: 25 to 60 µM
  % Activity: + (<25%)

## CCN(CC)c1ccc(NC(=O)c2c[nH]c3ccccc3c2=O)c(C)c1 [Compound 82, N-(4-diethylamino-2-methyl-phenyl)-4-oxo-1H-quinoline-3-carboxamide]
  EC50: < 10 µM
  % Activity: ++ (between 25% to 100%)

## N#Cc1cccc(-c2ccccc2NC(=O)c2c[nH]c3ccccc3c2=O)c1 [Compound 83, N-[2-(3-cyanophenyl)phenyl]-4-oxo-1H-quinoline-3-carboxamide]
  EC50: < 10 µM
  % Activity: ++ (between 25% to 100%)

## Cc1ccnc(NC(=O)c2c[nH]c3ccccc3c2=O)c1 [Compound 84, N-(4-methyl-2-pyridyl)-4-oxo-1H-quinoline-3-carboxamide]
  EC50: 25 to 60 µM
  % Activity: + (<25%)

## O=C(Nc1ccccc1-c1ccc(Cl)c(Cl)c1)c1c[nH]c2ccccc2c1=O [Compound 85, N-[2-(3,4-dichlorophenyl)phenyl]-4-oxo-1H-quinoline-3-carboxamide]
  EC50: < 10 µM
  % Activity: ++ (between 25% to 100%)

## NCc1ccccc1-c1ccc(NC(=O)c2c[nH]c3ccccc3c2=O)cc1 [Compound 86, N-[4-[2-(aminomethyl)phenyl]phenyl]-4-oxo-1H-quinoline-3-carboxamide]
  EC50: 10 to 25 µM
  % Activity: ++ (between 25% to 100%)

## O=C(Nc1cccc(Oc2ccccc2)c1)c1c[nH]c2ccccc2c1=O [Compound 87, 4-oxo-N-(3-phenoxyphenyl)-1H-quinoline-3-carboxamide]
  EC50: < 10 µM
  % Activity: ++ (between 25% to 100%)

## Cc1ccc(C#N)c(NC(=O)c2c[nH]c3ccccc3c2=O)c1 [Compound 89, N-(2-cyano-5-methyl-phenyl)-4-oxo-1H-quinoline-3-carboxamide]
  EC50: 25 to 60 µM
  % Activity: + (<25%)

## CC(C)(C)c1ccccc1NC(=O)c1c[nH]c2ccccc2c1=O [Compound 90, 4-oxo-N-(2-tert-butylphenyl)-1H-quinoline-3-carboxamide]
  EC50: < 10 µM
  % Activity: ++ (between 25% to 100%)

## CCc1ccc(Cl)c(CC)c1NC(=O)c1c[nH]c2ccccc2c1=O [Compound 91, N-(3-chloro-2,6-diethyl-phenyl)-4-oxo-1H-quinoline-3-carboxamide]
  EC50: < 10 µM
  % Activity: ++ (between 25% to 100%)

## CC1(c2cc(F)c(NC(=O)c3c[nH]c4ccccc4c3=O)cc2O)CCCCC1 [Compound 92, N-[2-fluoro-5-hydroxy-4-(1-methylcyclohexyl)-phenyl]-4-oxo-1H-quinoline-3-carboxamide]
  EC50: < 10 µM
  % Activity: ++ (between 25% to 100%)

## N#Cc1ccc(-c2ccccc2NC(=O)c2c[nH]c3ccccc3c2=O)s1 [Compound 93, N-[2-(5-cyano-2-thienyl)phenyl]-4-oxo-1H-quinoline-3-carboxamide]
  EC50: < 10 µM
  % Activity: ++ (between 25% to 100%)

## Cc1ccc(N)cc1NC(=O)c1c[nH]c2ccccc2c1=O [Compound 94, N-(5-Amino-2-methyl-phenyl)-4-oxo-1H-quinoline-3-carboxamide]
  EC50: < 10 µM
  % Activity: ++ (between 25% to 100%)

## N#Cc1ccccc1NC(=O)c1c[nH]c2ccccc2c1=O [Compound 95, N-(2-cyanophenyl)-4-oxo-1H-quinoline-3-carboxamide]
  EC50: 10 to 25 µM
  % Activity: ++ (between 25% to 100%)

## N#CCc1c[nH]c2cc(NC(=O)c3c[nH]c4ccccc4c3=O)ccc12 [Compound 96, N-[3-(cyanomethyl)-1H-indol-6-yl]-4-oxo-1H-quinoline-3-carboxamide]
  EC50: < 10 µM
  % Activity: ++ (between 25% to 100%)

## COc1ncc(-c2ccccc2NC(=O)c2c[nH]c3ccccc3c2=O)c(OC)n1 [Compound 97, N-[2-(2,4-dimethoxypyrimidin-5-yl)phenyl]-4-oxo-1H-quinoline-3-carboxamide]
  EC50: < 10 µM
  % Activity: ++ (between 25% to 100%)

## CCCc1ccc(N(C)C)cc1NC(=O)c1c[nH]c2ccccc2c1=O [Compound 98, N-(5-dimethylamino-2-propyl-phenyl)-4-oxo-1H-quinoline-3-carboxamide]
  EC50: < 10 µM
  % Activity: ++ (between 25% to 100%)

## CCCCCc1ccc(NC(=O)c2c[nH]c3ccccc3c2=O)cc1 [Compound 99, 4-oxo-N-(4-pentylphenyl)-1H-quinoline-3-carboxamide]
  EC50: < 10 µM
  % Activity: ++ (between 25% to 100%)

## O=C(Nc1cccc2[nH]ccc12)c1c[nH]c2ccccc2c1=O [Compound 100, N-(1H-indol-4-yl)-4-oxo-1H-quinoline-3-carboxamide]
  EC50: 25 to 60 µM
  % Activity: + (<25%)
